Data published in ChEMBL document CHEMBL5154935, “Design, Synthesis, and Biological Evaluation of Novel Evodiamine Derivatives as Potential Antihepatocellular Carcinoma Agents” (J Med Chem, 2022).
The source made the active and inactive calls. The calls are words filed in the database; no cut-off is given here.

How the values were obtained:
[1] = tested on: SK-HEP1; assay: Induction of mitochondrial membrane potential changes in human SK-Hep1 cells assessed as decrease in TMRE positive cells at 10 to 80 nM incubated for 24 hrs by TMRE staining based flow cytometry (reference value: 87.92 %); type: functional; design: scale not given: the % may be the effect or the level left; settings: dose 10-80 nM
[2] = tested on: Huh-7; assay: Antitumor activity against human Huh-7 cells xenografted in BALB/c mouse assessed as reduction in neo-vascularisation at 10 mg/kg, ip qd for 11 days and measured after 12 days by hematoxylin and eosin staining based assay; type: functional, organism-based; settings: time 12.0 day
[3] = Toxicity in BALB/c mouse xenografted with human Huh-7 cells assessed as histopathological change in liver at 10 mg/kg, ip qd for 11 days and measured after 12 days by hematoxylin and eosin staining based assay; type: organism-based; settings: in vivo, 288 h, time 12 day
[4] = Cmax in Sprague-Dawley rat at 80 mg/kg, ip measured upto 24 hrs by LC-MS analysis; type: ADME, organism-based; design: dose 80 mg/kg, time < 24 hrs, route ip; settings: in vivo

## CC(=O)Oc1ccc2[nH]c3c(c2c1)CCN1C(=O)c2cc(F)cc(F)c2N(c2cccc(F)c2)C31 (centres undefined)
[1]
  Activity: 65.21%
[2]
  Activity: Active
[3]
  Activity: Non-Toxic
[4]
  Cmax: 350 ng/mL
